In US8841483B2, “Compositions useful as inhibitors of voltage-gated sodium channels” (Vertex Pharmaceuticals Incorporated, priority 2006, dated 2014) one finds IC50 data, which are given here for 60 molecules.

In the assay the target is NaV1.8 (Homo sapiens, UniProt Q9Y5Y9). Nature of the assay: Activity against NaV 1.8 channel (Table 3), optical membrane potential / electrophysiology assays. The assay is classed as cell-based. The procedure:
Compounds of the invention are useful as antagonists of voltage-gated sodium ion channels. Antagonist properties of test compounds were assessed as follows. Cells expressing the NaV of interest were placed into microtiter plates. After an incubation period, the cells were stained with fluorescent dyes sensitive to the transmembrane potential. The test compounds were added to the microtiter plate. The cells were stimulated with either a chemical or electrical means ti evoke a NaV dependent membrane potential change from unblocked channels, which was detected and measured with trans-membrane potential-sensitive dyes. Antagonists were detected as a decreased membrane potential response to the stimulus. The optical membrane potential assay utilized voltage-sensitive FRET sensors described by Gonzalez and Tsien (See, Gonzalez, J. E. and R. Y. Tsien (1995) “Voltage sensing by fluorescence resonance energy transfer in single cells” Biophys J 69(4): 1272-80, and Gonzalez, J. E. and R. Y. Tsien (1997) “Improved indicators of cell membrane potential that use fluorescence resonance energy transfer” Chem Biol 4(4): 269-77) in combination with instrumentation for measuring fluorescence changes such as the Voltage/Ion Probe Reader (VIPR®) (See, Gonzalez, J. E., K. Oades, et al. (1999) “Cell-based assays and instrumentation for screening ion-channel targets” Drug Discov Today 4(9): 431-439).
The following is an example of how NaV1.3 inhibition activity is measured using the optical membrane potential method #2. Other subtypes are performed in an analogous mode in a cell line expressing the NaV of interest.
HEK293 cells stably expressing NaV1.3 are plated into 96-well microtiter plates. After an appropriate incubation period, the cells are stained with the voltage sensitive dyes CC2-DMPE/DiSBAC2(3) as follows.
2X CC2-DMPE=20 μM CC2-DMPE: 10 mM CC2-DMPE is vortexed with an equivalent volume of 10% pluronic, followed by vortexing in required amount of HBSS containing 10 mM HEPES. Each cell plate will require 5 mL of 2X CC2-DMPE. 50 μL of 2X CC2-DMPE is to wells containing washed cells, resulting in a 10 μM final staining concentration. The cells are stained for 30 minutes in the dark at RT.
2X DISBAC2(3) with ABSC1=6 μM DISBAC2(3) and 1 mM ABSC1: The required amount of 10 mM DISBAC2(3) is added to a 50 ml conical tube and mixed with 1 μL 10% pluronic for each mL of solution to be made and vortexed together. Then HBSS/HEPES is added to make up 2X solution. Finally, the ABSC1 is added.
The 2X DiSBAC2(3) solution can be used to solvate compound plates. Note that compound plates are made at 2X drug concentration. Wash stained plate again, leaving residual volume of 50 μL. Add 50 uL/well of the 2X DiSBAC2(3) w/ABSC1. Stain for 30 minutes in the dark at RT.
The electrical stimulation instrument and methods of use are described in ION Channel Assay Methods PCT/US01/21652, herein incorporated by reference. The instrument comprises a microtiter plate handler, an optical system for exciting the coumarin dye while simultaneously recording the coumarin and oxonol emissions, a waveform generator, a current- or voltage-controlled amplifier, and a device for inserting electrodes in well. Under integrated computer control, this instrument passes user-programmed electrical stimulus protocols to cells within the wells of the microtiter plate.
Assay Protocol • 1. Insert or use electrodes into each well to be assayed. • 2. Use the current-controlled amplifier to deliver stimulation wave pulses for 3 s. Two seconds of pre-stimulus recording are performed to obtain the un-stimulated intensities. Five seconds of post-stimulation recording are performed to examine the relaxation to the resting state.
Data are analyzed and reported as normalized ratios of background-subtracted emission intensities measured in the 460 nm and 580 nm channels. Background intensities are then subtracted from each assay channel. […]

Regarding `CC(C)(C)c1ccc(C(=O)Nc2cccc(S(N)(=O)=O)c2)c(Oc2ccccc2)c1` [Compound 1], the IC50 (in general, the point on the concentration scale where inhibition reaches its midpoint) is less than 2 µM.
For the molecule `Cc1cc(Br)ccc1C(=O)Nc1cccc(S(N)(=O)=O)c1` [Compound 2], the IC50 was greater than 10 µM.
`NS(=O)(=O)c1cccc(NC(=O)c2ccc(Cl)c(Cl)c2)c1` [Compound 3]: the IC50 is greater than 10 µM.
As to `NS(=O)(=O)c1cccc(NC(=O)c2ccccc2-n2cccc2)c1` [Compound 4], the IC50 was greater than 10 µM.
For the molecule `NS(=O)(=O)c1cccc(NC(=O)c2ccc(Cc3ccccc3)cc2)c1` [Compound 5], the IC50 is greater than 10 µM.
With `NS(=O)(=O)c1cccc(NC(=O)c2ccccc2Nc2cccc(F)c2)c1` [Compound 6] the figure was greater than 10 µM; with `NS(=O)(=O)c1cccc(NC(=O)c2ccccc2Cc2ccccc2)c1` [Compound 7], less than 2 µM; with `NS(=O)(=O)c1cccc(NC(=O)c2ccc(C(F)(F)F)cc2)c1` [Compound 8], greater than 10 µM.
With `COc1ccc(C(=O)Nc2cccc(S(N)(=O)=O)c2)cc1OC` [Compound 9], the IC50 was greater than 10 µM.
As to `CC(C)c1ccc(C(=O)Nc2cccc(S(N)(=O)=O)c2)cc1` [Compound 10], the concentration for half-maximal inhibition (IC50) lay within 2 to 10 µM.
For `NS(=O)(=O)c1cccc(NC(=O)c2ccccc2-c2cccnc2)c1` [Compound 11], the IC50 was greater than 10 µM.
Take `NS(=O)(=O)c1cccc(NC(=O)c2ccccc2COc2ccccc2)c1` [Compound 12]: the IC50 was 2 to 10 µM.
Consider `NS(=O)(=O)c1cccc(NC(=O)c2ccc(Br)cc2)c1` [Compound 13], for which the 50% inhibitory concentration (IC50) was greater than 10 µM.
Consider `CNS(=O)(=O)c1cccc(NC(=O)c2ccc(C(C)(C)C)cc2)c1` [Compound 14], for which the IC50 fell in the range of 2 to 10 µM.
`NS(=O)(=O)c1cccc(NC(=O)c2cccc(Oc3ccccc3)c2)c1` [Compound 15]: the IC50 lay in the range of 2 to 10 µM.
Regarding `NS(=O)(=O)c1cccc(NC(=O)c2ccccc2Oc2ccc(C(F)(F)F)cc2)c1` [Compound 16], the IC50 was less than 2 µM.
Consider `NS(=O)(=O)c1cccc(NC(=O)c2ccccc2Nc2cccc(Oc3ccccc3)c2)c1` [Compound 17], for which the IC50 was greater than 10 µM.
As to `NS(=O)(=O)c1cccc(NC(=O)c2cccc(C(=O)c3ccccc3)c2)c1` [Compound 18], the IC50 is greater than 10 µM.
In the case of `NS(=O)(=O)c1cccc(NC(=O)c2ccc(-c3ncc[nH]3)cc2)c1` [Compound 19], the IC50 is greater than 10 µM.
With `NS(=O)(=O)c1cccc(NC(=O)c2ccccc2NC(=O)c2cccnc2)c1` [Compound 20] the figure was greater than 10 µM; with `NS(=O)(=O)c1cccc(NC(=O)c2ccccc2Oc2ccccc2Cl)c1` [Compound 21], less than 2 µM.
As to `COc1ccc(C(=O)Nc2cccc(S(N)(=O)=O)c2)cc1` [Compound 22], the IC50 was greater than 10 µM.
For `COc1ccccc1Oc1ccccc1C(=O)Nc1cccc(S(N)(=O)=O)c1` [Compound 23], the half-inhibitory concentration (IC50) is less than 2 µM.
For `Cc1c(Cl)cc(NC(=O)c2ccc(C(C)(C)C)cc2)cc1S(N)(=O)=O` [Compound 24], the IC50 was greater than 10 µM.
Consider `Cc1cc(C)c(S(N)(=O)=O)cc1NC(=O)c1ccc(C(C)(C)C)cc1` [Compound 25], for which the IC50 was greater than 10 µM.
Take `CC(C)(C)c1cccc(Nc2ccccc2C(=O)Nc2cccc(S(N)(=O)=O)c2)c1` [Compound 26]: the IC50 was greater than 10 µM.
As to `NS(=O)(=O)c1cccc(NC(=O)c2ccccc2Nc2cccnc2)c1` [Compound 27], the 50% inhibitory concentration (IC50) fell in the range of 2 to 10 µM.
In the case of `CCc1ccc(C(=O)Nc2cccc(S(N)(=O)=O)c2)cc1` [Compound 28], the IC50 is greater than 10 µM.
`Cc1cc(Cl)ccc1C(=O)Nc1cccc(S(N)(=O)=O)c1` [Compound 29]: the half-maximal inhibitory concentration (IC50) was greater than 10 µM.
With `NS(=O)(=O)c1cccc(NC(=O)c2ccccc2OC(F)(F)F)c1` [Compound 30] the figure was greater than 10 µM; with `NS(=O)(=O)c1cccc(NC(=O)c2ccc(Cl)cc2)c1` [Compound 31], greater than 10 µM; with `NS(=O)(=O)c1cccc(NC(=O)c2ccc3c(c2)OCO3)c1` [Compound 32], greater than 10 µM.
As for `CN(C)c1ccc(C(=O)Nc2cccc(S(N)(=O)=O)c2)cc1` [Compound 33], the IC50 is greater than 10 µM.
On to `NS(=O)(=O)c1cccc(NC(=O)c2ccc(OC(F)(F)F)cc2)c1` [Compound 34, N-(3-(Aminosulfonyl)phenyl)-4-(trifluoromethoxy)benzamide], for which the IC50 is greater than 10 µM.
As to `NS(=O)(=O)c1cccc(NC(=O)c2cccc(C(F)(F)F)c2)c1` [Compound 35], the IC50 is greater than 10 µM.
`CC(=O)c1cccc(Nc2ccccc2C(=O)Nc2cccc(S(N)(=O)=O)c2)c1` [Compound 36]: the IC50 was greater than 10 µM.
With `COC(=O)c1ccc(C(=O)Nc2cccc(S(N)(=O)=O)c2)cc1` [Compound 37] the figure was greater than 10 µM; with `Cc1ccc(C(=O)Nc2cccc(S(N)(=O)=O)c2)cc1` [Compound 38], greater than 10 µM; with `NS(=O)(=O)c1cccc(NC(=O)c2cccc(Br)c2)c1` [Compound 40], greater than 10 µM.
In the case of `Cc1ccc(S(N)(=O)=O)cc1NC(=O)c1ccc(Cl)cc1[N+](=O)[O-]` [Compound 41], the IC50 was greater than 10 µM.
The value for `COc1ccc(C(=O)Nc2cccc(S(N)(=O)=O)c2)cc1C(F)(F)F` [Compound 42] was greater than 10 µM; that for `COc1cc(C)c(S(N)(=O)=O)cc1NC(=O)c1ccc(C(C)(C)C)cc1` [Compound 43] was greater than 10 µM; that for `CN(C)c1ccccc1C(=O)Nc1cccc(S(N)(=O)=O)c1` [Compound 44] was greater than 10 µM.
For `CC(C)COC(=O)N1CCN(c2ccccc2C(=O)Nc2cccc(S(N)(=O)=O)c2)CC1` [Compound 45], the IC50 is greater than 10 µM.
In the case of `Cc1c(Cl)cc(S(N)(=O)=O)cc1NC(=O)c1ccc(C(C)(C)C)cc1` [Compound 46], the IC50 was greater than 10 µM.
With `NS(=O)(=O)c1cccc(NC(=O)c2ccccc2C(F)(F)F)c1` [Compound 47] the figure was greater than 10 µM; with `CC(C)(C)c1ccc(C(=O)Nc2cccc(S(N)(=O)=O)c2)c(Oc2ccccc2Cl)c1` [Compound 48], less than 2 µM.
The value for `NS(=O)(=O)c1cccc(NC(=O)c2ccc(-c3ncns3)cc2)c1` [Compound 49] was greater than 10 µM.
As for `COc1ccc(Oc2ccccc2C(=O)Nc2cccc(S(N)(=O)=O)c2)cc1` [Compound 50], the IC50 was 2 to 10 µM.
`NS(=O)(=O)c1cccc(NC(=O)c2ccccc2OCc2ccccc2)c1` [Compound 51]: the IC50 was greater than 10 µM.
With `N#Cc1ccc(C(=O)Nc2cccc(S(N)(=O)=O)c2)cc1` [Compound 52], the IC50 was greater than 10 µM.
As to `NS(=O)(=O)c1cccc(NC(=O)c2ccccc2Oc2ccccc2N2CCCCC2)c1` [Compound 53, 2-(2-(Piperidin-1-yl)phenoxy)-N-(3-(aminosulfonyl)phenyl)benzamide], the IC50 is less than 2 µM.
In the case of `CC(=O)Nc1ccc(C(=O)Nc2cccc(S(N)(=O)=O)c2)cc1` [Compound 54], the IC50 was greater than 10 µM.
With `Cc1ccccc1Oc1cc(C(C)(C)C)ccc1C(=O)Nc1cccc(S(N)(=O)=O)c1` [Compound 55], the IC50 was less than 2 µM.
With `CS(=O)(=O)c1ccc(C(=O)Nc2cccc(S(N)(=O)=O)c2)cc1` [Compound 56], the IC50 is greater than 10 µM.
The value for `CCCCOc1ccc(C(=O)Nc2cccc(S(N)(=O)=O)c2)cc1` [Compound 57] was greater than 10 µM.
For `NS(=O)(=O)c1cccc(NC(=O)c2ccc(-c3ccccc3)cc2)c1` [Compound 58], the IC50 is greater than 10 µM.
With `Cc1ccc(Oc2ccccc2C(=O)Nc2cccc(S(N)(=O)=O)c2)cc1` [Compound 59], the IC50 is 2 to 10 µM.
Take `NS(=O)(=O)c1cccc(NC(=O)c2ccc(SC(F)(F)F)cc2)c1` [Compound 60]: the IC50 was greater than 10 µM.
With `CC(C)(C)c1ccc(C(=O)Nc2cccc(S(N)(=O)=O)c2)c(Oc2cccnc2)c1` [Compound 61] the figure was less than 2 µM.
